Reference: patent US9512459B2 (priority 2011, dated 2016)

Legend:
[1] = target: T1, Aspergillus niger glucose dehydrogenase (FAD-GDH) Ang-n1, wild type, SEQ ID NO: 2 (20 N-terminal residues deleted, Ala21 substituted by Met) (Aspergillus niger, UniProt A2QWL1); assay: GDH activity vs glucose, saturation curve (Ang-n1); type: biochemical; settings: 60 ml culture, crude enzyme; glucose 1-40 mM, pH 6.5, DCIP/PMS
T1 construct: pET30c, E. coli BL21(DE3), crude extract
T1 sequence (A2QWL1 with tags, fused parts or gaps): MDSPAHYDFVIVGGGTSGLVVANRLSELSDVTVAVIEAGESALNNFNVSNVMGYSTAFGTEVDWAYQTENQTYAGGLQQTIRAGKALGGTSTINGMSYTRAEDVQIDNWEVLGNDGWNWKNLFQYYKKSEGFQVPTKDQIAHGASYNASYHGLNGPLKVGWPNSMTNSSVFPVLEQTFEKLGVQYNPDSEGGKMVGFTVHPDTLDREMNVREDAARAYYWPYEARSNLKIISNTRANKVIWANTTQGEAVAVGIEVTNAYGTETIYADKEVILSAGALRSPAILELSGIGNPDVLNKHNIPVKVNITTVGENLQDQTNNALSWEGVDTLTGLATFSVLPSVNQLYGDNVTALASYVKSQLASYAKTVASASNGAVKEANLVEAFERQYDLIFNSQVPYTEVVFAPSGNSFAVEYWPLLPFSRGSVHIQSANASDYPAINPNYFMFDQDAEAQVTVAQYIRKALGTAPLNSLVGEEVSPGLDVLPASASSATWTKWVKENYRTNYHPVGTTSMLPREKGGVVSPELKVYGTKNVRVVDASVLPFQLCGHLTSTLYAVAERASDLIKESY
Description: (§1) The transformant BL21 (DE3) expressing each mutated enzyme was precultured. The transformant was inoculated in an amount of 1% with respect to 60 ml of a medium A using a 300-ml baffled flask and shake-cultured under conditions involving 20° C., 28 hours, and 125 rpm. After collection of 50 ml of the medium, the bacterial cells were suspended by the addition of BugBuster (registered trademark) protein extraction reagent (Novagen/Merck KGaA) at a ratio of 5 ml per g of wet cells and incubated at room temperature for 15 minutes with gentle shaking. Insoluble fractions were removed by centrifugation (15 Krpm, 4° C., 20 minutes). Then, the obtained supernatant was dialyzed overnight at 4° C. against a 20 mM potassium phosphate buffer solution (pH 6.5). […]
(§2) The GDH activity was measured in a DCIP (0.3 mM)/PMS (0.6 mM) system using a 20 mM potassium phosphate buffer solution (pH 6.5) as a buffer solution and glucose (Glc; 1, 2, 4, 10, 20, and 40 mM) and xylose (Xyl; 4 and 40 mM) as substrates.
(§3) The numeric values in the tables represent a mean of several data about specific activity (U/mg) and productivity (U/L) obtained under the same conditions with 40 mM glucose as a substrate. […] The obtained Michaelis-Menten constant (Km value) and apparent maximum activity (Vmax) were determined from a saturation curve determined therefrom.

[2] = target: T2, Aspergillus niger glucose dehydrogenase (FAD-GDH) Ang-n2, SEQ ID NO: 2 (26 N-terminal residues deleted, Met-Thr-Asp-Ser-Thr-Leu-Asn added) (Aspergillus niger, UniProt A2QWL1); assay: GDH activity vs glucose, saturation curve (Ang-n2); type: biochemical; settings: crude enzyme, glucose 1-40 mM, pH 6.5, DCIP/PMS
T2 construct: pET30c, E. coli BL21(DE3), crude extract or purified (T9)
T2 sequence (A2QWL1 27-588): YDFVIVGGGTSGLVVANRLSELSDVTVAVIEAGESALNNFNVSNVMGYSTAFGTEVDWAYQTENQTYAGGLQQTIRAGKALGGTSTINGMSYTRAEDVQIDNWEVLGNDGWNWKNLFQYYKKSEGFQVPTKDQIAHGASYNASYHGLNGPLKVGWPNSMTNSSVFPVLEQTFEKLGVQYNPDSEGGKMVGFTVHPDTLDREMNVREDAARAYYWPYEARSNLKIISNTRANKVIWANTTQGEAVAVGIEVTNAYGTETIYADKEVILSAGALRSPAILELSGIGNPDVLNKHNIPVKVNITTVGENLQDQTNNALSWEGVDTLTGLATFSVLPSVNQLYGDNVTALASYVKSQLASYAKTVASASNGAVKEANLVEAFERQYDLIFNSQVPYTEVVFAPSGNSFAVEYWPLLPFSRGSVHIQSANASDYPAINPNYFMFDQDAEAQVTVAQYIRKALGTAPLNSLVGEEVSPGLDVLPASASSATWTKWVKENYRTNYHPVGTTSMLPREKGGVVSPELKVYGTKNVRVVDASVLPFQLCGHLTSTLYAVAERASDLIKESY
Description: as §1, §2, §3

[3] = target: Sclerotinia sclerotiorum glucose dehydrogenase (FAD-GDH) Ssc-n1 variant S529G, SEQ ID NO: 1 (Sclerotinia sclerotiorum, UniProt A7F9L2, S529G); settings: 60 ml culture, crude enzyme; glucose 1-40 mM, pH 6.5, DCIP/PMS
Description: (§4) The transformant BL21 (DE3) expressing each mutated enzyme was precultured. The transformant was inoculated in an amount of 1% with respect to 60 ml of a medium A using a 300-ml baffled flask and shake-cultured under conditions involving 20° C., 28 hours, and 125 rpm. After collection of 50 ml of the medium, the bacterial cells were suspended by the addition of BugBuster (registered trademark) protein extraction reagent (Novagen/Merck KGaA) at a ratio of 5 ml per g of wet cells and incubated at room temperature for 15 minutes with gentle shaking. Insoluble fractions were removed by centrifugation (15 Krpm, 4° C., 20 minutes). Then, the obtained supernatant was dialyzed overnight at 4° C. against a 20 mM potassium phosphate buffer solution (pH 6.5). After the completion of the dialysis, the dialysate was centrifuged, and the supernatant was used as a crude enzyme preparation. Insoluble fractions were suspended in a 20 mM potassium phosphate buffer solution (pH 6.5) at a ratio of 1 ml per 2 ml of the suspension containing the insoluble fractions.
as §2
(§5) The numeric values in the tables represent a mean of several data about specific activity (U/mg) and productivity (U/L) obtained under the same conditions with 40 mM glucose as a substrate. The obtained crude enzyme preparation was used to observe the correlation between the concentration of the substrate (glucose; 1, 2, 4, 10, 20, and 40 mM) and the activity. The obtained Michaelis-Menten constant (Km value) and apparent maximum activity (Vmax) were determined from a saturation curve determined therefrom.

[4] = target: Sclerotinia sclerotiorum glucose dehydrogenase (FAD-GDH) Ssc-n1 variant N191E, SEQ ID NO: 1 (Sclerotinia sclerotiorum, UniProt A7F9L2, N191E); settings: 60 ml culture, crude enzyme; glucose 1-40 mM, pH 6.5, DCIP/PMS
Description: as §4, §2, §5

[5] = target: Sclerotinia sclerotiorum glucose dehydrogenase (FAD-GDH) Ssc-n2 variant N191R/S529G, SEQ ID NO: 1 (Sclerotinia sclerotiorum, UniProt A7F9L2, N191R/S529G); settings: 60 ml culture, crude enzyme; glucose 1-40 mM, pH 6.5, DCIP/PMS
Description: as §4, §2, §5

[6] = target: Sclerotinia sclerotiorum glucose dehydrogenase (FAD-GDH) Ssc-n1 variant N191R, SEQ ID NO: 1 (Sclerotinia sclerotiorum, UniProt A7F9L2, N191R); settings: 60 ml culture, crude enzyme; glucose 1-40 mM, pH 6.5, DCIP/PMS
Description: as §4, §2, §5

[7] = target: Sclerotinia sclerotiorum glucose dehydrogenase (FAD-GDH) Ssc-n2 variant N191E/S529G, SEQ ID NO: 1 (Sclerotinia sclerotiorum, UniProt A7F9L2, N191E/S529G); settings: 60 ml culture, crude enzyme; glucose 1-40 mM, pH 6.5, DCIP/PMS
Description: as §4, §2, §5

With `OC[C@H]1OC(O)[C@H](O)[C@@H](O)[C@@H]1O` (some centres unmarked) [glucose] the Vmax [1] was 0.2 U/mg protein, the Vmax ([2]; 3 ml culture (Table 8)) was 1.5 U/mg protein and the Vmax ([2]; 60 ml culture) was 1.5 U/mg protein. It also gave a Vmax [3] of 3.6 U/mg protein, a Vmax [4] of 5.6 U/mg protein and a Vmax [5] of 15.7 U/mg protein. It also gave a Vmax [6] of 5.6 U/mg protein and a Vmax [7] of 20.2 U/mg protein.
